Test results as given in ChEMBL document CHEMBL1201861, “Genomics of Drug Sensitity in Cancer screening data, Wellcome Trust Sanger Institute”.

Key:
Experiment in all cases: cells
CW-2 = assay type: functional, cell-based, Homo sapiens; settings: Homo sapiens, CW-2;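 also: growth inhibition of CW-2 cells, read out by a cell viability assay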
Description: SANGER: Inhibition of human CW-2 cell growth in a cell viability assay.

DEL = assay type: functional, cell-based, Homo sapiens; settings: Homo sapiens, DEL;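 also: growth inhibition of the human DEL cell line, read out with a cell viability assay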
Description: SANGER: Inhibition of human DEL cell growth in a cell viability assay.

DMS-114 = assay type: functional, cell-based, Homo sapiens; settings: Homo sapiens, DMS-114
DSH1 = assay type: functional, cell-based, Homo sapiens; settings: Homo sapiens, DSH1;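 also: growth inhibition of human DSH1 cells, measured with a cell viability readout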
Description: SANGER: Inhibition of human DSH1 cell growth in a cell viability assay.

DU-4475 = assay type: functional, cell-based, Homo sapiens; settings: Homo sapiens, DU-4475
Description: SANGER: Inhibition of human DU-4475 cell growth in a cell viability assay.

EW-1 = assay type: functional, cell-based, Homo sapiens; settings: Homo sapiens, EW-1
Description: SANGER: Inhibition of human EW-1 cell growth in a cell viability assay.

EW-13 = assay type: functional, cell-based, Homo sapiens; settings: Homo sapiens, EW-13;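 also: growth inhibition of EW-13 cells, read out with a cell viability assay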
Description: SANGER: Inhibition of human EW-13 cell growth in a cell viability assay.

GB-1 = assay type: functional, cell-based, Homo sapiens; settings: Homo sapiens, GB-1;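 also: growth of GB-1 cells judged by a viability assay, IC50 marks the concentration inhibiting growth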
Description: SANGER: Inhibition of human GB-1 cell growth in a cell viability assay.

GCIY = assay type: functional, cell-based, Homo sapiens; settings: Homo sapiens, GCIY;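 also: growth inhibition of the human GCIY cell line, read out by a cell viability assay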
Description: SANGER: Inhibition of human GCIY cell growth in a cell viability assay.

GI-1 = assay type: functional, cell-based, Homo sapiens; settings: Homo sapiens, GI-1;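 also: growth inhibition of human GI-1 cells, measured with a cell viability readout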
Description: SANGER: Inhibition of human GI-1 cell growth in a cell viability assay.

GOTO = assay type: functional, cell-based, Homo sapiens; settings: Homo sapiens, GOTO;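 also: growth inhibition of GOTO cells, read out by a cell viability assay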
Description: SANGER: Inhibition of human GOTO cell growth in a cell viability assay.

GR-ST = assay type: functional, cell-based, Homo sapiens; settings: Homo sapiens, GR-ST
Description: SANGER: Inhibition of human GR-ST cell growth in a cell viability assay.

HCE-T = assay type: functional, cell-based, Homo sapiens; settings: Homo sapiens, HCE-T;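 also: cell viability assay read-out, reporting inhibition of HCE-T cell growth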
Description: SANGER: Inhibition of human HCE-T cell growth in a cell viability assay.

KARPAS-45 = assay type: functional, cell-based, Homo sapiens; settings: Homo sapiens, KARPAS-45;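 also: inhibition of cell line growth, read out through a viability assay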
Description: SANGER: Inhibition of human KARPAS-45 cell growth in a cell viability assay.

KG-1 = assay type: functional, cell-based, Homo sapiens; settings: Homo sapiens, KG-1;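 also: growth inhibition of KG-1 cells, read out by a cell viability assay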
Description: SANGER: Inhibition of human KG-1 cell growth in a cell viability assay.

KINGS-1 = assay type: functional, cell-based, Homo sapiens; settings: Homo sapiens, KINGS-1;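 also: cell viability assay measuring suppression of KINGS-1 cell growth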
Description: SANGER: Inhibition of human KINGS-1 cell growth in a cell viability assay.

KP-N-YS = assay type: functional, cell-based, Homo sapiens; settings: Homo sapiens, KP-N-YS;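 also: cell viability assay measuring inhibition of cell line growth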
Description: SANGER: Inhibition of human KP-N-YS cell growth in a cell viability assay.

L-428 = assay type: functional, cell-based, Homo sapiens; settings: Homo sapiens, L-428
Description: SANGER: Inhibition of human L-428 cell growth in a cell viability assay.

LAMA-84 = assay type: functional, cell-based, Homo sapiens; settings: Homo sapiens, LAMA-84;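 also: growth inhibition of LAMA-84 cells, read out with a cell viability assay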
Description: SANGER: Inhibition of human LAMA-84 cell growth in a cell viability assay.

LOX IMVI = assay type: functional, cell-based, Homo sapiens; settings: Homo sapiens, LOX IMVI
Description: SANGER: Inhibition of human LOXIMVI cell growth in a cell viability assay.

Lu-65 = assay type: functional, cell-based, Homo sapiens; settings: Homo sapiens, Lu-65;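 also: growth inhibition of Lu-65 cancer cells, read out by a cell viability assay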
Description: SANGER: Inhibition of human LU-65 cell growth in a cell viability assay.

MLMA = assay type: functional, cell-based, Homo sapiens; settings: Homo sapiens, MLMA;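 also: growth inhibition of MLMA cells (human), determined through a cell viability readout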
Description: SANGER: Inhibition of human MLMA cell growth in a cell viability assay.

MN-60 = assay type: functional, cell-based, Homo sapiens; settings: Homo sapiens, MN-60;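 also: growth inhibition of the MN-60 cell line, determined with a cell viability assay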
Description: SANGER: Inhibition of human MN-60 cell growth in a cell viability assay.

MZ1-PC = assay type: functional, cell-based, Homo sapiens; settings: Homo sapiens, MZ1-PC;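 also: cell viability assay measuring growth inhibition of human MZ1-PC cells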
Description: SANGER: Inhibition of human MZ1-PC cell growth in a cell viability assay.

NB13 = assay type: functional, cell-based, Homo sapiens; settings: Homo sapiens, NB13;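 also: cell viability readout measuring growth inhibition of human NB13 cells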
Description: SANGER: Inhibition of human NB13 cell growth in a cell viability assay.

NCI-H1650 = assay type: functional, cell-based, Homo sapiens; settings: Homo sapiens, NCI-H1650;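 also: growth inhibition of human NCI-H1650 cells measured by a cell viability assay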
Description: SANGER: Inhibition of human NCI-H1650 cell growth in a cell viability assay.

NCI-H209 = assay type: functional, cell-based, Homo sapiens; settings: Homo sapiens, NCI-H209;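 also: growth inhibition of human NCI-H209 cells, measured by a cell viability assay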
Description: SANGER: Inhibition of human NCI-H209 cell growth in a cell viability assay.

NCI-H510A = assay type: functional, cell-based, Homo sapiens; settings: Homo sapiens, NCI-H510A;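 also: growth inhibition of NCI-H510A cells, read out with a cell viability assay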
Description: SANGER: Inhibition of human NCI-H510A cell growth in a cell viability assay.

NCI-H82 = assay type: functional, cell-based, Homo sapiens; settings: Homo sapiens, NCI-H82;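 also: growth inhibition of NCI-H82 cells, measured with a cell viability readout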
Description: SANGER: Inhibition of human NCI-H82 cell growth in a cell viability assay.

NH-12 = assay type: functional, cell-based, Homo sapiens; settings: Homo sapiens, NH-12;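 also: growth inhibition of NH-12 cells, read out with a cell viability assay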
Description: SANGER: Inhibition of human NH-12 cell growth in a cell viability assay.

OCI-AML2 = assay type: functional, cell-based, Homo sapiens; settings: Homo sapiens, OCI-AML2;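 also: growth inhibition of OCI-AML2 cells, read out with a cell viability assay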
Description: SANGER: Inhibition of human OCI-AML2 cell growth in a cell viability assay.

OVCAR-4 = assay type: functional, cell-based, Homo sapiens; settings: Homo sapiens, OVCAR-4;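 also: growth inhibition of human OVCAR-4 cells, measured with a cell viability assay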
Description: SANGER: Inhibition of human OVCAR-4 cell growth in a cell viability assay.

QIMR-WIL = assay type: functional, cell-based, Homo sapiens; settings: Homo sapiens, QIMR-WIL;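 also: growth inhibition of QIMR-WIL cells, read out with a cell viability assay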
Description: SANGER: Inhibition of human QIMR-WIL cell growth in a cell viability assay.

Ramos-2G6-4C10 = assay type: functional, cell-based, Homo sapiens; settings: Homo sapiens, Ramos-2G6-4C10;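 also: growth inhibition of the cell line, measured by a cell viability read-out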
Description: SANGER: Inhibition of human Ramos-2G6-4C10 cell growth in a cell viability assay.

SBC-1 = assay type: functional, cell-based, Homo sapiens; settings: Homo sapiens, SBC-1;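 also: cell viability assay measuring growth inhibition of the SBC-1 cell line, IC50 being the concentration that halves growth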
Description: SANGER: Inhibition of human SBC-1 cell growth in a cell viability assay.

SF-539 = assay type: functional, cell-based, Homo sapiens; settings: Homo sapiens, SF-539;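 also: Read-out is a cell viability assay, with IC50 reflecting inhibition of cell growth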
Description: SANGER: Inhibition of human SF539 cell growth in a cell viability assay.

SHP77 = assay type: functional, cell-based, Homo sapiens, SHP-77; settings: Homo sapiens, SHP77;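 also: growth inhibition of human SHP-77 cells measured by a cell viability assay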
Description: SANGER: Inhibition of human SHP-77 cell growth in a cell viability assay.

SK-MEL-2 = assay type: functional, cell-based, Homo sapiens; settings: Homo sapiens, SK-MEL-2;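 also: growth inhibition of human SK-MEL-2 cells measured with a cell viability assay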
Description: SANGER: Inhibition of human SK-MEL-2 cell growth in a cell viability assay.

SK-NEP-1 = assay type: functional, cell-based, Homo sapiens; settings: Homo sapiens, SK-NEP-1;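 also: growth inhibition of human SK-NEP-1 cells, read out by a cell viability assay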
Description: SANGER: Inhibition of human SK-NEP-1 cell growth in a cell viability assay.

TE-1 = assay type: functional, cell-based, Homo sapiens; settings: Homo sapiens, TE-1;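 also: growth inhibition of the human TE-1 cell line, read out with a cell viability assay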
Description: SANGER: Inhibition of human TE-1 cell growth in a cell viability assay.

A3-KAW = assay type: functional, cell-based, Homo sapiens; settings: Homo sapiens, A3-KAW;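 also: growth inhibition of human A3-KAW cells, read out with a cell viability assay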
Description: SANGER: Inhibition of human A3-KAW cell growth in a cell viability assay.

BB30-HNC = assay type: functional, cell-based, Homo sapiens; settings: Homo sapiens, BB30-HNC;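 also: growth inhibition of the cultured cell line, read out by a cell viability assay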
Description: SANGER: Inhibition of human BB30-HNC cell growth in a cell viability assay.

TGBC1TKB = assay type: functional, cell-based, Homo sapiens; settings: Homo sapiens, TGBC1TKB;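 also: growth inhibition of TGBC1TKB cells, read out by a cell viability assay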
Description: SANGER: Inhibition of human TGBC1TKB cell growth in a cell viability assay.

U-266 = assay type: functional, cell-based, Homo sapiens; settings: Homo sapiens, U-266
Description: SANGER: Inhibition of human U-266 cell growth in a cell viability assay.

UACC-257 = assay type: functional, cell-based, Homo sapiens; settings: Homo sapiens, UACC-257
Description: SANGER: Inhibition of human UACC-257 cell growth in a cell viability assay.

no-10 = assay type: functional, cell-based, Homo sapiens; settings: Homo sapiens;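 also: growth inhibition of no-10 cells, read out with a cell viability assay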
Description: SANGER: Inhibition of human no-10 cell growth in a cell viability assay.

With `CC[C@H](CO)Nc1nc(NCc2ccccc2)c2ncn(C(C)C)c2n1` [SELICICLIB] as the compound, how does the IC50 (CW-2) read?
The IC50 was over 16 µM.

What about the IC50 (DEL) of the same compound?
The IC50 was over 16 µM.

And the IC50 (DMS-114)?
The IC50 was over 16 µM.

What about the IC50 (DSH1) of the same compound?
Its IC50 is over 16 µM.

What about the IC50 (DU-4475) of the same compound?
The IC50 was over 16 µM.

And the IC50 (EW-1)?
Its IC50 is over 16 µM.

And the IC50 (EW-13)?
The IC50 was over 16 µM.

And the IC50 (GB-1)?
Its IC50 is over 16 µM.

And the IC50 (GCIY)?
Its IC50 is 12.9 µM.

What about the IC50 (GI-1) of the same compound?
The IC50 was over 16 µM.

And the IC50 (GOTO)?
The IC50 was over 16 µM.

What about the IC50 (GR-ST) of the same compound?
Its IC50 is over 16 µM.

What about the IC50 (HCE-T) of the same compound?
The IC50 was over 16 µM.

And the IC50 (KARPAS-45)?
Its IC50 is over 16 µM.

And the IC50 (KG-1)?
Its IC50 is over 16 µM.

And the IC50 (KINGS-1)?
Its IC50 is over 16 µM.

What about the IC50 (KP-N-YS) of the same compound?
The IC50 was over 16 µM.

And the IC50 (L-428)?
Its IC50 is over 16 µM.

And the IC50 (LAMA-84)?
The IC50 was over 16 µM.

What about the IC50 (LOX IMVI) of the same compound?
The IC50 was over 16 µM.

And the IC50 (Lu-65)?
The IC50 was over 16 µM.

And the IC50 (MLMA)?
Its IC50 is over 16 µM.

What about the IC50 (MN-60) of the same compound?
The IC50 was over 16 µM.

What about the IC50 (MZ1-PC) of the same compound?
Its IC50 is over 16 µM.

And the IC50 (NB13)?
The IC50 was over 16 µM.

And the IC50 (NCI-H1650)?
Its IC50 is over 16 µM.

What about the IC50 (NCI-H209) of the same compound?
The IC50 was over 16 µM.

What about the IC50 (NCI-H510A) of the same compound?
The IC50 was over 16 µM.

And the IC50 (NCI-H82)?
Its IC50 is over 16 µM.

And the IC50 (NH-12)?
Its IC50 is over 16 µM.

What about the IC50 (OCI-AML2) of the same compound?
The IC50 was 15.6 µM.

What about the IC50 (OVCAR-4) of the same compound?
Its IC50 is over 16 µM.

What about the IC50 (QIMR-WIL) of the same compound?
Its IC50 is over 16 µM.

And the IC50 (Ramos-2G6-4C10)?
The IC50 was over 16 µM.

What about the IC50 (SBC-1) of the same compound?
Its IC50 is over 16 µM.

And the IC50 (SF-539)?
The IC50 was over 16 µM.

What about the IC50 (SHP77) of the same compound?
The IC50 was over 16 µM.

What about the IC50 (SK-MEL-2) of the same compound?
Its IC50 is over 16 µM.

What about the IC50 (SK-NEP-1) of the same compound?
Its IC50 is over 16 µM.

And the IC50 (TE-1)?
Its IC50 is over 16 µM.

What about the IC50 (A3-KAW) of the same compound?
The IC50 was 5.76 µM.

And the IC50 (BB30-HNC)?
The IC50 was over 16 µM.

And the IC50 (TGBC1TKB)?
The IC50 was over 16 µM.

And the IC50 (U-266)?
The IC50 was over 16 µM.

And the IC50 (UACC-257)?
Its IC50 is over 16 µM.

What about the IC50 (no-10) of the same compound?
Its IC50 is over 16 µM.
